{"source": "ChEMBL document CHEMBL1201862", "about": "“PubChem BioAssay data set” (2004)", "key": {"[1]": {"assay": "control 3'UTR Renilla luciferase suppression, dose response, counter-screen for Shn3 inhibitor project, cell-based, Clone20-Shn3RL, cherry-picked (AID 624133)", "type": "functional"}, "[2]": {"assay": "Shn3 3'UTR reporter inhibitors, dose response, cell-based, Clone20 osteoblasts, firefly luciferase, cherry-picked (AID 624132)", "type": "functional"}, "[3]": {"assay": "HepG2 cell cytotoxicity, dose response, cytotoxicity control for Shn3 inhibitor project, CellTiter-Glo, cherry-picked (AID 624134)", "type": "functional, cell-based"}, "[4]": {"molecular_target": "T1, Streptokinase A (Streptococcus pyogenes serotype M1, UniProt P10520)", "T1 sequence (P10520 whole entry)": "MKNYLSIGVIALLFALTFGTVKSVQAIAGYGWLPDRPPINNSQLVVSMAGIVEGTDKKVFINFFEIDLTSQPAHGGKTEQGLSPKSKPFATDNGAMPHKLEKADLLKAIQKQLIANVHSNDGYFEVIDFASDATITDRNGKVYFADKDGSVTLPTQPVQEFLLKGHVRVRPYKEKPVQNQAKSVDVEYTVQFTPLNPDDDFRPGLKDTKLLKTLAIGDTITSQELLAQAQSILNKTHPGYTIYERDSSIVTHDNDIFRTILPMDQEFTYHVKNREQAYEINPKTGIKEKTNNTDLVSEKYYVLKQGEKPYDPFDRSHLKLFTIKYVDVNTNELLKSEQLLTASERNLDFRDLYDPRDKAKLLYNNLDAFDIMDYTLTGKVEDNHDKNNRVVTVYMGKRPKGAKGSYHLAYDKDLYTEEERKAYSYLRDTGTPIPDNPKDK", "assay": "S. pyogenes streptokinase expression inhibitors, potency, dose response, plasminogen activation absorbance, OD405 (AID 1914);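 also: secreted streptokinase activity via plasminogen activation per viability signal from cell pellet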", "type": "functional, Streptococcus pyogenes M1 GAS"}, "[5]": {"system": "Streptococcus sp. 'group A'", "assay": "growth inhibition of control SK(-) GAS strain, dose response, counter-screen for streptokinase expression inhibitor project, luminescence, kanamycin, BacTiterGlo, confirmation (AID 1900)", "type": "functional, organism-based"}, "[6]": {"system": "Streptococcus", "assay": "Group A Streptococcus viability loss, dose response, counter-screen for streptokinase expression inhibitor project, luminescence, BacTiterGlo (AID 1915);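 also: potency for reduction of bacterial viability or growth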", "type": "functional, organism-based"}, "[7]": {"assay": "HEp-2 cell cytotoxicity, dose response, cytotoxicity control for RSV inhibitor project, HTS (AID 2410)", "type": "functional", "conditions": "human respiratory syncytial virus"}, "[8]": {"assay": "C. albicans growth with fluconazole, confirmation, fluorescence, retest (AID 2467)", "type": "functional, cell-based"}, "[9]": {"assay": "NIH-3T3 fibroblast cytotoxicity, dose response, cytotoxicity control, cell-based, fluorescence, Alamar Blue, secondary assay (AID 2327);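 also: NIH-3T3 mouse fibroblasts cultured with fluconazole at 8 µg/mL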", "type": "functional"}, "[10]": {"molecular_target": "T2, Heat shock factor protein 1 (Mus musculus, UniProt P38532)", "T2 sequence (P38532 whole entry)": "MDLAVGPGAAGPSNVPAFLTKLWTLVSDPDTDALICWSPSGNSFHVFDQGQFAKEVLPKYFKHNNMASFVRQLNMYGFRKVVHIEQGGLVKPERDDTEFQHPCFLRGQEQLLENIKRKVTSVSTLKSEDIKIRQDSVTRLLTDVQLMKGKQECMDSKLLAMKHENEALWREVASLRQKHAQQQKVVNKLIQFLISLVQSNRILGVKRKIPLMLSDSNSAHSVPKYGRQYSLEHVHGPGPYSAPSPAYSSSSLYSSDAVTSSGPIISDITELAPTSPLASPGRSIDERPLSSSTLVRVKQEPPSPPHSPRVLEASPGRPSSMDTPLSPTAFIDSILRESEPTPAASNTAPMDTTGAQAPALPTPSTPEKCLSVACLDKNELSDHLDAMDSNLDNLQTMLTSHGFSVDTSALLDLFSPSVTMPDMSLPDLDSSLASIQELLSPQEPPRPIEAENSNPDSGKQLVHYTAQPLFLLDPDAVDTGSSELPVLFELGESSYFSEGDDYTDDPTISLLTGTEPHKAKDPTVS", "assay": "inhibition of MG132-induced HSE-luciferase signal, confirmation, cell-based, NIH3T3, luminescence, dose retest (AID 2382);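 also: NIH3T3 fibroblasts with HSF1-driven luciferase reporter stressed by proteasome inhibitor MG132; luminescence from HSF1-driven luciferase expression after 8 hours of MG132 stress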", "type": "functional"}, "[11]": {"molecular_target": "Luciferin 4-monooxygenase (Photinus pyralis, UniProt P08659)", "sequence (P08659 whole entry)": "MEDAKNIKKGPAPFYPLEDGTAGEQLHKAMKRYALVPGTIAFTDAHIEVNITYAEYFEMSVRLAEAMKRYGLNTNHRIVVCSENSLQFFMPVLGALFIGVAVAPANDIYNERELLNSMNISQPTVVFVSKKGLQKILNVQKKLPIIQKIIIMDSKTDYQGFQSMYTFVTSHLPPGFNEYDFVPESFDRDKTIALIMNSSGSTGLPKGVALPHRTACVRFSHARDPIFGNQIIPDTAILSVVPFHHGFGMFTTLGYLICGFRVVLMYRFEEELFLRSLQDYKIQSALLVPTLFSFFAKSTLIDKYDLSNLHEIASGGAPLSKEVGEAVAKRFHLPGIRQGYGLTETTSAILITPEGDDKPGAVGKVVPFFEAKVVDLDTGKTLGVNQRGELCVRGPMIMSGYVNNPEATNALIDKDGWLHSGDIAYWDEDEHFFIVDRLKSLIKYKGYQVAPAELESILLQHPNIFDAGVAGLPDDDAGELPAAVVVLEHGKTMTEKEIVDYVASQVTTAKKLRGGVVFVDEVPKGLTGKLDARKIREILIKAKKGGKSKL", "assay": "firefly luciferase enzyme inhibitors, dose response, biochemical, luminescence (AID 1891)"}, "[12]": {"assay": "Luminescence Cell-Based Dose Confirmation HTS to Identify Inhibitors of Platelet Dense Granule Release. [Related pubchem assays: 1663 (Primary HTS), 1678 (Summary of Project)]", "type": "functional"}, "[13]": {"assay": "cytotoxicity toward NIH3T3 fibroblasts, dose response, counter-screen, cell-based, ATP luminescence, mouse fibroblasts (AID 2010);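 also: cells exposed to compound for about 90 hours before reading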", "type": "functional"}, "[14]": {"assay": "inhibitors of intracellular T. cruzi replication, confirmation, NIH3T3 host cells, beta-gal luminescence (AID 2044);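 also: luminescent beta-galactosidase reporter signal from transgenic T. cruzi replicating inside host cells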", "type": "functional, cell-based"}}, "note": "The source made the active and inactive calls. Rule as the data show it, for most assays here: actives have a measured EC50 and inactives only a lower limit."}
{"smiles": "O=C(C1CCC(CNS(=O)(=O)c2cccs2)CC1)N1CCN(c2ccc(Cl)cc2)CC1", "note": "(stereo not given)", "values": [{"measurement": "AC50", "setting": "[1]", "value": "16 µM (active)"}, {"measurement": "AC50", "setting": "[2]", "value": "1.61 µM (active)"}, {"measurement": "AC50", "setting": "[3]", "value": "2.76 µM (active)"}]}
{"smiles": "CN(Cc1ccc(N(C)C)cc1)C(=O)c1cc2ccccc2o1", "values": [{"measurement": "EC50", "setting": "[4]", "value": "> 150 µM (not active)"}, {"measurement": "EC50", "setting": "[5]", "value": "> 150 µM (not active)"}, {"measurement": "EC50", "setting": "[6]", "value": "> 150 µM (not active)"}]}
{"smiles": "Cc1nc(SCC(=O)NCC2CCCO2)c2cc(-c3ccccc3)sc2n1", "note": "(stereo not given)", "values": [{"measurement": "CC50", "setting": "[7]", "value": "20.3 µM (active)"}]}
{"smiles": "CNc1ccc(OC)cc1-n1cnc(-c2ccc([N+](=O)[O-])cc2)c1", "values": [{"measurement": "EC50", "setting": "[8]", "value": "> 38 µM (not active)"}, {"measurement": "EC50", "setting": "[9]", "value": "> 150 µM (inactive)"}]}
{"smiles": "COC(=O)c1ccc(CNC(=O)COC(=O)COc2ccc(OC)cc2)cc1", "values": [{"measurement": "EC50", "setting": "[10]", "value": "> 195 µM (not active)"}]}
{"smiles": "Cc1nc2cc(NC(=O)Nc3cccc(F)c3)ccc2n1C", "values": [{"measurement": "EC50", "setting": "[11]", "value": "5.89 µM (active)"}, {"measurement": "EC50", "setting": "[12]", "value": "7.45 µM (active)"}]}
{"smiles": "CCOC(=O)C1=C(c2ccccc2)N=C(S)NC1c1cc([N+](=O)[O-])ccc1OC", "note": "(stereo not given)", "values": [{"measurement": "CC50", "setting": "[7]", "value": "> 50 µM (active)"}]}
{"smiles": "Cc1ccccc1N=C(S)c1ccc2ccccc2n1", "values": [{"measurement": "EC50", "setting": "[11]", "value": "> 112 µM (not active)"}, {"measurement": "EC50", "setting": "[12]", "value": "> 112 µM (not active)"}]}
{"smiles": "Nc1ncnc2c1ncn2[C@@H]1O[C@H](CO)C[C@H]1O", "note": "[CORDYCEPIN]", "values": [{"measurement": "EC50", "setting": "[8]", "value": "4.1 µM (active)"}, {"measurement": "EC50", "setting": "[9]", "value": "> 150 µM (inconclusive)"}]}
{"smiles": "CCCc1cc(O)nc(SCc2csc(-c3ccccc3)n2)n1", "values": [{"measurement": "EC50", "setting": "[8]", "value": "2.81 µM (active)"}, {"measurement": "EC50", "setting": "[9]", "value": "> 160 µM (inactive)"}]}
{"smiles": "COC(=O)C1=C(c2ccc(OCc3ccccc3)cc2)C[C@@H]2CC[C@H]1N2C(=O)NCc1ccc(OC)c(OC)c1", "values": [{"measurement": "AC50", "setting": "[1]", "value": "30.1 µM (active)"}, {"measurement": "AC50", "setting": "[2]", "value": "19.7 µM (active)"}]}
{"smiles": "CC1CC1C(=O)OCC(=O)NCc1ccc(Cl)cc1Cl", "note": "(stereo not given)", "values": [{"measurement": "EC50", "setting": "[10]", "value": "> 195 µM (not active)"}]}
{"smiles": "Cc1ccc(NC(=O)c2sccc2C)nc1", "values": [{"measurement": "EC50", "setting": "[11]", "value": "13.9 µM (active)"}, {"measurement": "EC50", "setting": "[12]", "value": "5.98 µM (active)"}]}
{"smiles": "Cc1ccccc1/C=N/NC1=NC(=O)CCS1", "values": [{"measurement": "CC50", "setting": "[7]", "value": "26.4 µM (active)"}]}
{"smiles": "Clc1cccc(-c2nn3c(Cn4cnc5ccccc54)nnc3s2)c1", "values": [{"measurement": "CC50", "setting": "[7]", "value": "> 50 µM (active)"}]}
{"smiles": "Cc1ccc(Cn2ccc(=O)c(OCc3c(Cl)cccc3Cl)c2C)cc1", "values": [{"measurement": "EC50", "setting": "[4]", "value": "13.7 µM (active)"}, {"measurement": "EC50", "setting": "[5]", "value": "6.66 µM (active)"}, {"measurement": "EC50", "setting": "[6]", "value": "> 150 µM (not active)"}, {"measurement": "AC50", "setting": "[1]", "value": "6.57 µM (active)"}, {"measurement": "AC50", "setting": "[2]", "value": "6.11 µM (active)"}, {"measurement": "AC50", "setting": "[3]", "value": "60.6 µM (active)"}]}
{"smiles": "CCN(CC)CCN(C(=O)CCS(=O)(=O)c1ccccc1)c1nc2cc(C)cc(C)c2s1", "values": [{"measurement": "EC50", "setting": "[4]", "value": "> 150 µM (not active)"}, {"measurement": "EC50", "setting": "[5]", "value": "> 150 µM (not active)"}, {"measurement": "EC50", "setting": "[6]", "value": "> 150 µM (not active)"}, {"measurement": "EC50", "setting": "[13]", "value": "> 30 µM (not active)"}, {"measurement": "EC50", "setting": "[14]", "value": "697 nM (active)"}]}
{"smiles": "CCc1nnc(NC(=O)Cn2ccc(C(F)(F)F)n2)s1", "values": [{"measurement": "EC50", "setting": "[8]", "value": "> 38 µM (not active)"}, {"measurement": "EC50", "setting": "[9]", "value": "> 150 µM (inactive)"}]}
{"smiles": "CCOc1cccc(-c2c(C(=O)N/N=C/c3ccco3)nnn2-c2nonc2N)c1", "values": [{"measurement": "EC50", "setting": "[11]", "value": "> 112 µM (not active)"}, {"measurement": "EC50", "setting": "[12]", "value": "14.8 µM (active)"}]}
{"smiles": "O=C(Cc1ccccc1)NCCS(=O)(=O)N1CCN(c2ccccc2)CC1", "values": [{"measurement": "EC50", "setting": "[4]", "value": "> 150 µM (not active)"}, {"measurement": "EC50", "setting": "[5]", "value": "> 150 µM (not active)"}, {"measurement": "EC50", "setting": "[6]", "value": "> 150 µM (not active)"}]}
{"smiles": "CNC(=O)/C(C#N)=C\\c1cc(C)n(-c2ccc(N3CCOCC3)cc2)c1C", "values": [{"measurement": "EC50", "setting": "[4]", "value": "> 150 µM (not active)"}, {"measurement": "EC50", "setting": "[5]", "value": "30.4 µM (active)"}, {"measurement": "EC50", "setting": "[6]", "value": "98.2 µM (active)"}]}
{"smiles": "O=C(COC(=O)CNC(=O)c1ccccc1F)Nc1cccnc1Cl", "values": [{"measurement": "EC50", "setting": "[10]", "value": "> 195 µM (not active)"}]}
{"smiles": "Cc1cc(-c2cc(C(=O)O)c3ccccc3n2)c(C)s1", "values": [{"measurement": "EC50", "setting": "[8]", "value": "3.94 µM (active)"}, {"measurement": "EC50", "setting": "[9]", "value": "> 160 µM (inactive)"}]}
